Test results published in patent US20220106289A1, “NLRP3 INHIBITORS” (INFLAZOME LIMITED, priority 2018, published 2022).
Where a name gives a salt, the structure may show the parent alone.

Assays:
NLRP3 [1] = target: T1, NLRP3 (Homo sapiens, UniProt Q96P20); test: THP-1 cells pyroptosis assay (LPS + nigericin, resazurin read-out); format: cell-based; parameters: Seed THP-1 cells (25,000 cells/well) containing 1.0 μg/ml LPS; host or cells: THP-1 cells; details: NLRP3 inhibitory activity, 1 μg/ml LPS, 5 μM nigericin
Procedure: The cells were routinely passaged and grown to confluency (˜10^6 cells/ml). On the day of the experiment, THP-1 cells were harvested and resuspended into RPMI medium (without FBS). The cells were then counted and viability (>90%) checked by Trypan blue (Sigma #T8154). […] To this diluted cell solution was added LPS (Sigma #L4524) to give a 1 μg/ml Final Assay Concentration (FAC). 40 μl of the final preparation was aliquoted into each well of a 96-well plate. The plate thus prepared was used for compound screening. The following method step-by-step assay was followed for compound screening. • 1. […] Incubate for 3 hrs at 37° C., 5% CO2 • 4. Add 5 μl nigericin (Sigma #N7143) (FAC 5 μM) to all wells • 5. Incubate for 1 hr at 37° C., 5% CO2 • 6. At the end of the incubation period, spin plates at 300×g for 3 mins and remove supernatant • 7. Then add 50 μl of resazurin (Sigma #R7017) (FAC 100 μM resazurin in RPMI medium without FBS) and incubate plates for a further 1-2 hrs at 37° C. and 5% CO2 • 8.

NLRP3 [2] = target: T1, NLRP3; test: Human whole blood IL-1β release assay (LPS + nigericin, AlphaLisa); format: cell-based; parameters: Human whole blood in Li-heparin tubes was obtained from healthy donors; from tissue; host or cells: human whole blood from healthy donors; details: NLRP3 inhibitory activity, 1 μg/ml LPS, 10 μM nigericin, read-out: HWB IC50
Procedure: For systemic delivery, the ability to inhibit NLRP3 when the compounds are present within the bloodstream is of great importance. For this reason, the NLRP3 inhibitory activity of a number of compounds in human whole blood was investigated in accordance with the following protocol. Human whole blood in Li-heparin tubes was obtained from healthy donors from a volunteer donor panel. • 1. […] Incubate for 3 hrs at 37° C., 5% CO2 • 4. Add 10 μl nigericin (Sigma #N7143) (10 μM FAC) to all wells • 5. Incubate for 1 hr at 37° C., 5% CO2 • 6. At the end of the incubation period, spin plates at 300×g for 5 mins to pellet cells and remove 20 μl of supernatant and add to 96-well v-bottom plates for IL-1β analysis (note: these plates containing the supernatants can be stored at -80° C. to be analysed at a later date) • 7. IL-1β was measured according to the manufacturer protocol (Perkin Elmer-AlphaLisa IL-1 Kit A[…]-5000) • 8.

T1 sequence (Q96P20 whole entry): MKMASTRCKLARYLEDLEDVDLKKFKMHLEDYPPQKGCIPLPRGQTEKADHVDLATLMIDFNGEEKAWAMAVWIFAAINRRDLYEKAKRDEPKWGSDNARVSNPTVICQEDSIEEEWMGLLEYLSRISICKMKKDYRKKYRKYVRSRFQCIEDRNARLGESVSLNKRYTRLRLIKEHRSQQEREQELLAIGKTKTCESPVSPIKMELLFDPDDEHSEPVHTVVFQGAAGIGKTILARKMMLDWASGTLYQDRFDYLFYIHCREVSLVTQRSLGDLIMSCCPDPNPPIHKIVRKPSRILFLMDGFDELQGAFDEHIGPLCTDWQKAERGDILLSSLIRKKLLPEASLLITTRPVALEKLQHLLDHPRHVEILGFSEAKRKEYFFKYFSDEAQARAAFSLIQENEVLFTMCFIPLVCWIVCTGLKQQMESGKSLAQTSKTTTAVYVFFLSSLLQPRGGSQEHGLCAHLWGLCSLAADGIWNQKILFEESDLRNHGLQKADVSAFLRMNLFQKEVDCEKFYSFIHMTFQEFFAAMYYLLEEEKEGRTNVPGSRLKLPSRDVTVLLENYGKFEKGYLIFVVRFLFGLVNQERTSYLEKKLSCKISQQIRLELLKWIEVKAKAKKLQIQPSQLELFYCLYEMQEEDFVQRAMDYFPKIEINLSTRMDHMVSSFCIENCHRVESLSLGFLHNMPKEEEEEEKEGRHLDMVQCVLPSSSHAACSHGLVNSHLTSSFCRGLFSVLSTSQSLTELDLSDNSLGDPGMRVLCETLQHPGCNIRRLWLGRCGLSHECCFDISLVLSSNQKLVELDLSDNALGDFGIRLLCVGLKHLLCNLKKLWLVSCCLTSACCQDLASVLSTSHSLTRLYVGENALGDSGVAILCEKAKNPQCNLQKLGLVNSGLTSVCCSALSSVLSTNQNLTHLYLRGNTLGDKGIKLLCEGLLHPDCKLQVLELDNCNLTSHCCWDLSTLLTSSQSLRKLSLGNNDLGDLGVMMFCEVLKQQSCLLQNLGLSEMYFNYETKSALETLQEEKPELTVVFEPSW

SMILES: CC(C)c1cccc(C(C)C)c1NC(=O)NS(=O)(=O)c1cnn(C(C)C)c1 [Example 69, N-((2,6-Diisopropylphenyl)carbamoyl)-1-isopropyl-1H-pyrazole-4-sulfonamide]
- IC50 (NLRP3 [1]): 0.5 to 1 µM
- IC50 (NLRP3 [2]): 1 to 5 µM

SMILES: CC(C)(CN1CCC1)n1ccc(S(=O)(=O)NC(=O)Nc2c3c(cc4c2CCC4)CCC3)n1 [Example 56, 1-(1-(Azetidin-1-yl)-2-methylpropan-2-yl)-N-((1,2,3,5,6,7-hexahydro-s-indacen-4-yl)carbamoyl)-1H-pyrazole-3-sulfonamide]
- IC50 (NLRP3 [1]): < 0.25 µM
- IC50 (NLRP3 [2]): 0.25 to 0.5 µM

SMILES: CC(C)n1nc(S(=O)(=O)NC(=O)Nc2c3c(cc4c2CCC4)CCC3)cc1C(C)(C)O [Example 49, N-((1,2,3,5,6,7-Hexahydro-s-indacen-4-yl)carbamoyl)-5-(2-hydroxypropan-2-yl)-1-isopropyl-1H-pyrazole-3-sulfonamide]
- IC50 (NLRP3 [1]): < 0.25 µM
- IC50 (NLRP3 [2]): 0.5 to 1 µM

SMILES: CC(C)n1ccc(S(=O)(=O)NC(=O)Nc2c3c(cc4c2CCC4=O)CCC3)n1 [Example 31, 1-isopropyl-N-((1-oxo-1,2,3,5,6,7-hexahydro-s-indacen-4-yl)carbamoyl)-1H-pyrazole-3-sulfonamide, sodium salt]
- IC50 (NLRP3 [1]): 1 to 5 µM
- IC50 (NLRP3 [2]): 5 to 10 µM

SMILES: CC(C)n1ccc(S(=O)(=O)NC(=O)Nc2c3c(cc4c2C(=O)CC4)CCC3)n1 [Example 15, 1-Isopropyl-N-((3-oxo-1,2,3,5,6,7-hexahydro-s-indacen-4-yl)carbamoyl)-1H-pyrazole-3-sulfonamide, potassium salt]
- IC50 (NLRP3 [1]): 1 to 5 µM
- IC50 (NLRP3 [2]): > 10 µM

SMILES: CC(C)n1nncc1S(=O)(=O)NC(=O)Nc1c2c(cc3c1CCC3)CCC2 [Example 47, N-((1,2,3,5,6,7-Hexahydro-s-indacen-4-yl)carbamoyl)-1-isopropyl-1H-1,2,3-triazole-5-sulfonamide]
- IC50 (NLRP3 [1]): < 0.25 µM
- IC50 (NLRP3 [2]): 1 to 5 µM

SMILES: COc1cc(-c2cc(F)cc(C(C)C)c2CCC(=O)NS(=O)(=O)c2ccc(C(C)(C)O)cc2C)ccn1 [Example 3, 3-(4-Fluoro-2-isopropyl-6-(2-methoxypyridin-4-yl)phenyl)-N-((4-(2-hydroxypropan-2-yl)-2-methylphenyl)sulfonyl)propanamide]
- IC50 (NLRP3 [1]): 1 to 5 µM
- IC50 (NLRP3 [2]): > 10 µM

SMILES: O=C(Nc1c2c(cc3c1CCC3)CCC2)NS(=O)(=O)c1cnn(CC(F)(F)F)c1 [Example 41, N-((1,2,3,5,6,7-Hexahydro-s-indacen-4-yl)carbamoyl)-1-(2,2,2-trifluoroethyl)-1H-pyrazole-4-sulfonamide, sodium salt]
- IC50 (NLRP3 [1]): 0.25 to 0.5 µM
- IC50 (NLRP3 [2]): 5 to 10 µM

SMILES: O=C(Nc1c2c(cc3c1CCC3)CCC2)NS(=O)(=O)c1ccn(CC(F)(F)F)n1 [Example 42, N-((1,2,3,5,6,7-Hexahydro-s-indacen-4-yl)carbamoyl)-1-(2,2,2-trifluoroethyl)-1H-pyrazole-3-sulfonamide]
- IC50 (NLRP3 [1]): < 0.25 µM
- IC50 (NLRP3 [2]): 1 to 5 µM

SMILES: CC(C)n1ccc(S(=O)(=O)NC(=O)Nc2cc(Br)ccc2Sc2nnnn2C)n1 [Example 28, N-((5-Bromo-2-((1-methyl-1H-tetrazol-5-yl)thio)phenyl)carbamoyl)-1-isopropyl-1H-pyrazole-3-sulfonamide]
- IC50 (NLRP3 [1]): 1 to 5 µM
- IC50 (NLRP3 [2]): 5 to 10 µM

SMILES: CC(C)c1cc(Cl)c2c(c1NC(=O)NS(=O)(=O)c1ccn(C(C)C)n1)CCC2 [Example 34, N-((7-Chloro-5-isopropyl-2,3-dihydro-1H-inden-4-yl)carbamoyl)-1-isopropyl-1H-pyrazole-3-sulfonamide]
- IC50 (NLRP3 [1]): 0.25 to 0.5 µM
- IC50 (NLRP3 [2]): 5 to 10 µM

SMILES: Cc1cc(C(C)(C)O)ccc1S(=O)(=O)NC(=O)C1CC(C)(C)c2cc(F)cc(C(C)C)c21 (stereo not drawn) [Example 1, 5-Fluoro-N-((4-(2-hydroxypropan-2-yl)-2-methylphenyl)sulfonyl)-7-isopropyl-3,3-dimethyl-2,3-dihydro-1H-indene-1-carboxamide]
- IC50 (NLRP3 [1]): 5 to 10 µM

SMILES: CC(C)(C)OC(=O)NC/C(=C\F)COc1ccc(S(=O)(=O)NC(=O)Nc2c3c(cc4c2CCC4)CCC3)cc1 [Example 18, tert-Butyl-(3-fluoro-2-((4-(N-((1,2,3,5,6,7-hexahydro-s-indacen-4-yl)carbamoyl)sulfamoyl)phenoxy)methyl)allyl)carbamate, potassium salt]
- IC50 (NLRP3 [1]): 1 to 5 µM

SMILES: COc1cc(-c2cc(F)cc(C(C)C)c2CCC(=O)NS(=O)(=O)c2cc(C(C)(C)O)cs2)ccn1 [Example 5, 3-(4-Fluoro-2-isopropyl-6-(2-methoxypyridin-4-yl)phenyl)-N-((4-(2-hydroxypropan-2-yl)thiophen-2-yl)sulfonyl)propanamide]
- IC50 (NLRP3 [1]): 5 to 10 µM

SMILES: COc1cc(-c2cc(F)cc(C(C)C)c2CCC(=O)NS(=O)(=O)c2ccc(CN(C)C)cc2)ccn1 [Example 4, N-((4-((Dimethylamino)methyl)phenyl)sulfonyl)-3-(4-fluoro-2-isopropyl-6-(2-methoxypyridin-4-yl)phenyl)propanamide, potassium salt]
- IC50 (NLRP3 [1]): 5 to 10 µM

SMILES: CC(C)c1cccc(C(C)C)c1NC(=O)NS(=O)(=O)c1cnn(CC(F)(F)F)c1 [Example 76, N-((2,6-Diisopropylphenyl)carbamoyl)-1-(2,2,2-trifluoroethyl)-1H-pyrazole-4-sulfonamide]
- IC50 (NLRP3 [1]): 5 to 10 µM

SMILES: CC(C)(O)c1coc(S(=O)(=O)NC(=O)Cc2cc(Cl)cc(C(F)(F)F)c2)c1 [Example 92, 2-(3-Chloro-5-(trifluoromethyl)phenyl)-N-((4-(2-hydroxypropan-2-yl)furan-2-yl)sulfonyl)acetamide]
- IC50 (NLRP3 [1]): 5 to 10 µM

SMILES: CC(C)(O)c1coc(S(=O)(=O)NC(=O)Cc2noc3ccccc23)c1 [Example 90, 2-(Benzo[d]isoxazol-3-yl)-N-((4-(2-hydroxypropan-2-yl)furan-2-yl)sulfonyl)acetamide]
- IC50 (NLRP3 [1]): 1 to 5 µM

SMILES: Cc1nn(C)cc1S(=O)(=O)NC(=O)Nc1c2c(cc3c1CCC3)CCC2 [Example 80, N-((1,2,3,5,6,7-Hexahydro-s-indacen-4-yl)carbamoyl)-1,3-dimethyl-1H-pyrazole-4-sulfonamide, sodium salt]
- IC50 (NLRP3 [1]): 0.5 to 1 µM

SMILES: CC(C)n1ccc(S(=O)(=O)NC(=O)Nc2c3c(c(C#N)c4c2CCC4)CCC3)n1 [Example 37, N-((8-Cyano-1,2,3,5,6,7-hexahydro-s-indacen-4-yl)carbamoyl)-1-isopropyl-1H-pyrazole-3-sulfonamide]
- IC50 (NLRP3 [1]): 0.25 to 0.5 µM

SMILES: COc1cc(-c2ccc3c(c2CC(=O)NS(=N)(=O)C2CN(C(C)C)C2)CCC3)ccn1 (stereo not drawn) [Example 25, N-(1-Isopropylazetidine-3-sulfonimidoyl)-2-(5-(2-methoxypyridin-4-yl)-2,3-dihydro-1H-inden-4-yl)acetamide]
- IC50 (NLRP3 [1]): 5 to 10 µM

SMILES: CC(O)c1cc(S(=O)(=O)NC(=O)Nc2c3c(cc4c2CCC4)CCC3)nn1C (stereo not drawn) [Example 74, N-((1,2,3,5,6,7-Hexahydro-s-indacen-4-yl)carbamoyl)-5-(1-hydroxyethyl)-1-methyl-1H-pyrazole-3-sulfonamide]
- IC50 (NLRP3 [1]): 0.5 to 1 µM

SMILES: Cc1cc(Br)cc(CC(=O)NS(=O)(=O)c2cc(C(C)(C)O)co2)c1 [Example 94, 2-(3-Bromo-5-methylphenyl)-N-((4-(2-hydroxypropan-2-yl)furan-2-yl)sulfonyl)acetamide]
- IC50 (NLRP3 [1]): 1 to 5 µM

SMILES: CC(C)c1cc(F)cc2c1C(C(=O)NS(=O)(=O)c1cnn(C3CC3)c1)CC2(C)C (stereo not drawn) [Example 7, N-((1-Cyclopropyl-1H-pyrazol-4-yl)sulfonyl)-5-fluoro-7-isopropyl-3,3-dimethyl-2,3-dihydro-1H-indene-1-carboxamide]
- IC50 (NLRP3 [1]): 5 to 10 µM

SMILES: CC(C)c1cc(-c2ccccc2)cc(C(C)C)c1NC(=O)NS(=O)(=O)c1ccn(C(C)C)n1 [Example 73, N-((3,5-Diisopropyl-[1,1′-biphenyl]-4-yl)carbamoyl)-1-isopropyl-1H-pyrazole-3-sulfonamide]
- IC50 (NLRP3 [1]): 5 to 10 µM

SMILES: CC(C)(O)c1coc(S(=O)(=O)NC(=O)Cn2ncc3ccccc32)c1 [Example 89, N-((4-(2-Hydroxypropan-2-yl)furan-2-yl)sulfonyl)-2-(1H-indazol-1-yl)acetamide]
- IC50 (NLRP3 [1]): 1 to 5 µM

SMILES: O=C(Nc1c2c(cc3c1CCC3)CCC2)NS(=O)(=O)c1cnn(CC2CC2)c1 [Example 44, 1-(Cyclopropylmethyl)-N-((1,2,3,5,6,7-hexahydro-s-indacen-4-yl)carbamoyl)-1H-pyrazole-4-sulfonamide, sodium salt]
- IC50 (NLRP3 [1]): < 0.25 µM

SMILES: COc1cc(-c2cc(F)cc(C(C)C)c2CC(=O)Nc2ncco2)ccn1 [Example 95, 2-(4-Fluoro-2-isopropyl-6-(2-methoxypyridin-4-yl)phenyl)-N-(oxazol-2-yl)acetamide]
- IC50 (NLRP3 [1]): 5 to 10 µM
